From the supplement of paper PMC10307832

Tests used:
Assay in all cases: relative viability (nuclei count vs DMSO), 5 days (fraction); higher = more cells survive
Motesanib + Crizotinib = compound: CC1(C)CNc2cc(NC(=O)c3cccnc3NCc3ccncc3)ccc21 [Motesanib] + C[C@@H](Oc1cc(-c2cnn(C3CCNCC3)c2)cnc1N)c1c(Cl)ccc(F)c1Cl [Crizotinib] (partner 1 µM)
Procedure, shortened: (§1)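 Relative viability divides the nuclei count in treated wells by that in vehicle wells. Lung cancer cell lines were seeded in 1536-well plates, dosed by pin tool the next day, and fixed and stained after 5 days in one step with final 0.05% Triton X-100, 1% formaldehyde and 1 ug/ml Hoechst. Dosing was a single drug or a fixed anchor-drug dose plus five library-drug doses (not always all listed) in √10 steps, and values are medians of duplicate plates imaged at 4×.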

[1] = compound: C[C@@]1(C(=O)Nc2ccc(F)nc2)CCCN1c1nc(Nc2cc(C3CC3)n[nH]2)c2cccn2n1 + Nc1nc2[nH]cc(CCc3ccc(C(=O)N[C@@H](CCC(=O)O)C(=O)O)cc3)c2c(=O)[nH]1 [Pemetrexed] (partner 0.2 µM)
Procedure, shortened: as §1

Motesanib + OSI-027 = compound: CC1(C)CNc2cc(NC(=O)c3cccnc3NCc3ccncc3)ccc21 [Motesanib] + COc1cccc2cc(-c3nc([C@H]4CC[C@H](C(=O)O)CC4)n4ncnc(N)c34)[nH]c12 [OSI-027] (partner 0.5 µM)
Procedure, shortened: as §1

[2] = compound: C[C@@]1(C(=O)Nc2ccc(F)nc2)CCCN1c1nc(Nc2cc(C3CC3)n[nH]2)c2cccn2n1 + N=C(N)NC(=N)NCCc1ccccc1 [Phenformin] (partner 250 µM)
Procedure, shortened: as §1

With UMC-11 the relative viability (Motesanib + Crizotinib; first compound 0.01 µM) was 0.526, the relative viability (Motesanib + Crizotinib; first compound 0.03162 µM) was 0.657 and the relative viability (Motesanib + Crizotinib; first compound 0.1 µM) was 0.631. For the same cell line, the relative viability (Motesanib + Crizotinib; first compound 0.3162 µM) was 0.595, the relative viability (Motesanib + Crizotinib; first compound 1 µM) was 0.742 and the relative viability ([1]; first compound 0.04 µM) was 0.773. It also gave a relative viability ([1]; first compound 0.1265 µM) of 0.827, a relative viability ([1]; first compound 0.4 µM) of 0.705 and a relative viability ([1]; first compound 1.265 µM) of 0.722. It also gave a relative viability (Motesanib + OSI-027; first compound 0.01 µM) of 0.461, a relative viability (Motesanib + OSI-027; first compound 0.03162 µM) of 0.466 and a relative viability (Motesanib + OSI-027; first compound 0.1 µM) of 0.38. For the same cell line, the relative viability (Motesanib + OSI-027; first compound 0.3162 µM) was 0.503, the relative viability (Motesanib + OSI-027; first compound 1 µM) was 0.51 and the relative viability ([2]; first compound 0.04 µM) was 0.341. For the same cell line, the relative viability ([2]; first compound 0.1265 µM) was 0.339, the relative viability ([2]; first compound 0.4 µM) was 0.347 and the relative viability ([2]; first compound 1.265 µM) was 0.277.
